From patent US10858367B2, “Compounds” (GLAXOSMITHKLINE INTELLECTUAL PROPERTY DEVELOPMENT LIMITED, priority 2017, dated 2020)
Counter-ions that a name gives are not always drawn.

Columns and labels:
[1] = molecular target: T1, full length G2019 human LRRK2 (Homo sapiens, UniProt Q5S007, R50H); assay: Full length G2019 human LRRK2 Inhibition Mass Spectrometry assay; type: biochemical; conditions: 25 nM LRRK2 enzyme, 25 uM LRRKtide, 2 mM ATP; RapidFire mass spectrometry; read-out: pIC50 in the full length G2019 human LRRK2 Inhibition Mass Spectrometry assay (converted)
T1 construct: made in house; host or cells: HEK293 6E cells transduced with BacMam virus (virus generated in Sf9 cells)
T1 sequence (Q5S007 with tags, fused parts or gaps R50H): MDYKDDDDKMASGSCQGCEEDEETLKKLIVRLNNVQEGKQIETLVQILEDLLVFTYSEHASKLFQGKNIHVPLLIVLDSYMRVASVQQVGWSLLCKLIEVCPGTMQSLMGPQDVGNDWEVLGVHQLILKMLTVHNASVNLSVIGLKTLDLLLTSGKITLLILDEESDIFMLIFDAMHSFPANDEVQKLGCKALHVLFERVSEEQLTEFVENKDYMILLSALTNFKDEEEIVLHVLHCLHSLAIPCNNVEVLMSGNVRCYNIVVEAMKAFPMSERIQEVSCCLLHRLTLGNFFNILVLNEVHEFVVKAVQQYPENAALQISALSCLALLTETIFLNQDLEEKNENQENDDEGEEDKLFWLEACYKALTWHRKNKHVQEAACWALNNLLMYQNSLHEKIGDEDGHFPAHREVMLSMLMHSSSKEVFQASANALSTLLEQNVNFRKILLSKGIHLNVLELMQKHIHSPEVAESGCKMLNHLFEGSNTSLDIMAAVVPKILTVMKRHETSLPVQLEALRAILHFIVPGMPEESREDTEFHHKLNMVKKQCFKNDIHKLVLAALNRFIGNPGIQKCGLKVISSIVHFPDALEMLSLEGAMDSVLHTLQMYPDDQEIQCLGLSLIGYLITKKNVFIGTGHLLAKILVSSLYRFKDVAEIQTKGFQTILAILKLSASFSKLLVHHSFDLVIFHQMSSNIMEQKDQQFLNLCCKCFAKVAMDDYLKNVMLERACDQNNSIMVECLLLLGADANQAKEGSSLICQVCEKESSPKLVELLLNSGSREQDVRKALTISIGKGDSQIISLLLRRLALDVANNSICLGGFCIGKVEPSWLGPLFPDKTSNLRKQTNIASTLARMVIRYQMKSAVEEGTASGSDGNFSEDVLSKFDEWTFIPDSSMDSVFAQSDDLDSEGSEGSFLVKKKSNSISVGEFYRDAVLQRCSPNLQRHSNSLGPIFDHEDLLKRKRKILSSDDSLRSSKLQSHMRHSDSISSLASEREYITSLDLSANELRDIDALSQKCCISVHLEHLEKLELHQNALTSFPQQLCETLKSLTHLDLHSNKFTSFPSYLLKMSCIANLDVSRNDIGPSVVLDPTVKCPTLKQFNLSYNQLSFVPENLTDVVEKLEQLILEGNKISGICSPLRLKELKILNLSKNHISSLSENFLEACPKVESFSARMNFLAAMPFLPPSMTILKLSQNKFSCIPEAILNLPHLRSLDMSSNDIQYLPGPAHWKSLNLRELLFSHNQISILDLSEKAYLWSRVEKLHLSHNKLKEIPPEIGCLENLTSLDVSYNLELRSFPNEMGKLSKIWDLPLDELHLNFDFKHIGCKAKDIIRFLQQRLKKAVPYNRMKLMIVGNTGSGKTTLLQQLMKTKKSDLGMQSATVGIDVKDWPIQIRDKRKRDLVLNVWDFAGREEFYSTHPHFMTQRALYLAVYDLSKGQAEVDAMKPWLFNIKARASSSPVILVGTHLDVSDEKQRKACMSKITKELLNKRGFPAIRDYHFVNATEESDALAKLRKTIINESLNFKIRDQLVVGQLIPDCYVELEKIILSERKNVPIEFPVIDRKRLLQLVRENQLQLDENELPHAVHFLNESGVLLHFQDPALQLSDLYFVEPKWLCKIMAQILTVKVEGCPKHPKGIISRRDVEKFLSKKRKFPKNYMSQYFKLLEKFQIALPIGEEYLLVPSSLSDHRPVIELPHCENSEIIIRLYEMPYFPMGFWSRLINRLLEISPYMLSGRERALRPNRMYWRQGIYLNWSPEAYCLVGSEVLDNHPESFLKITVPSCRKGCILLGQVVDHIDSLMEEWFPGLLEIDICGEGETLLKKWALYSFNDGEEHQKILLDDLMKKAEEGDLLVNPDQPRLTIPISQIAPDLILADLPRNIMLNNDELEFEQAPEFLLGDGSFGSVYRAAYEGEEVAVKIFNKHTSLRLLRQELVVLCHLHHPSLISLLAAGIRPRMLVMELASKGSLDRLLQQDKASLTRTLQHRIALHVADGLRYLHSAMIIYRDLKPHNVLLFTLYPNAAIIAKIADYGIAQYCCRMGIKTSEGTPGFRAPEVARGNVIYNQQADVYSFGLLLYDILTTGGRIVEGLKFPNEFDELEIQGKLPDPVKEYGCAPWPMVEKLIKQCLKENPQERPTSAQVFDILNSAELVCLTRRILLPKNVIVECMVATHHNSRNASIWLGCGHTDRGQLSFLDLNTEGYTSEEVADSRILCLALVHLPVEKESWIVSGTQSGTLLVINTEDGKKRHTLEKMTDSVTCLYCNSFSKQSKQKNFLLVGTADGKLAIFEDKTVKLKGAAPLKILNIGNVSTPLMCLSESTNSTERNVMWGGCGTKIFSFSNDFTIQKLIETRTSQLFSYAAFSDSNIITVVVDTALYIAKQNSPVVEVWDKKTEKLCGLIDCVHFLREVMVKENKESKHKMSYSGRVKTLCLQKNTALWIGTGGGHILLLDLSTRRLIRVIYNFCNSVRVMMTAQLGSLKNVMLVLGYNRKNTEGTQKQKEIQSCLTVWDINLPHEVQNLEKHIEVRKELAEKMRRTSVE
Source text: a. Full Length G2019 Human LRRK2 Inhibition Mass Spectrometry Assay
This assay for Leucine Rich Repeat Kinase 2 (LRRK2) inhibition is based on the direct measurement of the peptide ‘LRRKtide’ (LRRKtide: RLGRDKYKT*LRQIRQ and “*” refers to the site of phosphorylation.) and phosphorylated ‘LRRKtide’ using a high throughput RapidFire mass spectrometry assay. Inhibitors are compounds that reduce the conversion of LRRKtide to phospho-LRRKtide.
Human G2019 LRRK2 Plasmid Preparation
Primers used for PCR cloning: • pHTBV-F:SEQ ID No: 1 • LRRK2 wt-F1:SEQ ID No: 2 • LRRK2 wt-R1: SEQ ID No: 3 • LRRK2 wt-F2: SEQ ID No: 4 • LRRK2 wt-R2: SEQ ID No: 5 • LRRK2 wt-F3:SEQ ID No: 6 • pHTBV-R: SEQ ID No: 7 pHTBV1-N-Flag-hu LRRK2 was generated by PCR amplifying the full length LRRK2 sequence with N terminal Flag tag from pcDNA3.1(+)_Human_LRRK2 (NCBI Reference Sequence: NP_940980.3) with the primers described above, and cloned into pHTBV1mcs3 vector between BamHI and KpnI sites.
The G2019 full length Flag-LRRK2 coding sequence is SEQ ID No: 8.
The translated amino acid sequence for human G2019 full length N terminal flag tagged LRRK2 protein is SEQ ID No: 9.
Protein Expression & Purification a) Expression of Flag Tagged Full Length G2019 Human LRRK2
HEK293 6E cells were incubated in a 37° C. incubator with a humidified atmosphere of 5% CO2 on an orbital shaker rotating at 110 rpm. On the day of transduction, the cell viability was higher than 98% and the cell density was in the range of 1×10^6˜1.5×10^6 cells/ml. HEK293 6E cells were centrifuged at 1,000 rpm for 10 min, and then the cells were resuspended in fresh Freestyle 293 expression medium (Invitrogen: 12338) with 0.1% F-68(Invitrogen: 24040-032) but without antibiotics (G418) at density of 1×10^6 cells/ml. BacMam virus with Flag-hu LRRK2 (genotypically normal) gene was centrifuged at 40,000 g for 2 hours, then resuspended in fresh Freestyle 293 expression medium. The resuspended virus was added into the cells in at MOI of 10. The cells were incubated in a 37° C. incubator with a humidified atmosphere of 5% CO2 in air on an orbital shaker rotating at 110 rpm. Cultures were harvested at approximately 48 hours post-transduction by centrifugation at 4,000 rpm for 20 min and pellets were frozen for purification. […]
b) Purification of Flag Tagged Full Length G2019 Human LRRK2
The suspended cells were lysed by sonication on ice for 30 min (2 secs on/4 sec off, 20% amplitude), and centrifuged at 10,000 rpm for 30 minutes at 4° C. The supernatant was incubated with 1 mL per litre of cell culture of anti-Flag magnetic beads (Sigma-Aldrich: M8823) at 4° C. for 3 hours, then the beads were washed by 5 mL (5 column volume) binding buffer (50 mM Tris pH7.5@ 4 C, 500 mM NaCl, 0.5 mM EDTA, 0.1% TritonX-100, 10% glycerol, freshly add 2 mM DTT) for three times. The Flag tagged LRRK2 proteins were eluted by Elution buffer (50 mM Tris pH7.5@ 4 C, 500 mM NaCl, 0.5 mM EDTA, 0.1% TritonX-100, 10% glycerol, freshly add 2 mM DTT, 250 ug/ml Flag peptide (Sigma-Aldrich:F3290)) at 4° C. for 2 hours. Flag peptide was removed by Zeba Spin Desalting Columns, 7K MWCO (Thermo-Fisher: 89893) and the buffer of eluted LRRK2 proteins was exchanged into Storage Buffer (50 mM Tris pH7.5@4 C, 150 mM NaCl, 0.5 mM EDTA, 0.02% Triton X-100, 2 mM DTT and 50% Glycerol) using Amicon Ultra Centrifugal Filter Units (100 kD) (Merck: UFC910096). Fractions containing LRRK2 proteins were pooled, aliquoted and stored at −80° C. Protein concentration was determined by Bradford protein assay, and protein purity was analyzed by NuPAG Novex 4-12% Bis-Tris Protein Gels (Invitrogen: NP0322BOX).
Assay Protocol • 1) A 10 mM test compound was dissolved in 100% DMSO and serially diluted 1 in 4. 100 nL of this dilution series was then added to a 384 well, v bottom polypropylene plate, excluding columns 6 and 18. 100 nL of DMSO was added to columns 6 and 18 as controls wells. […]

[2] = molecular target: T2, LRRK2 Ser935 phosphorylation in SH-SY5Y cells over-expressing recombinant full length LRRK2 (Homo sapiens, UniProt Q5S007); assay: Recombinant cellular LRRK2 AlphaScreen assay; type: cell-based; conditions: human neuroblastoma SH-SY5Y cells, BacMam full length LRRK2, 60 minutes with compound, read-out: pIC50 in the recombinant cellular LRRK2 AlphaScreen assay (converted)
T2 construct: A BacMam virus expressing full length recombinant LRRK2 was purchased from Invitrogen; host or cells: SH-SY5Y human neuroblastoma cells transduced with BacMam LRRK2 virus
T2 sequence (Q5S007 whole entry): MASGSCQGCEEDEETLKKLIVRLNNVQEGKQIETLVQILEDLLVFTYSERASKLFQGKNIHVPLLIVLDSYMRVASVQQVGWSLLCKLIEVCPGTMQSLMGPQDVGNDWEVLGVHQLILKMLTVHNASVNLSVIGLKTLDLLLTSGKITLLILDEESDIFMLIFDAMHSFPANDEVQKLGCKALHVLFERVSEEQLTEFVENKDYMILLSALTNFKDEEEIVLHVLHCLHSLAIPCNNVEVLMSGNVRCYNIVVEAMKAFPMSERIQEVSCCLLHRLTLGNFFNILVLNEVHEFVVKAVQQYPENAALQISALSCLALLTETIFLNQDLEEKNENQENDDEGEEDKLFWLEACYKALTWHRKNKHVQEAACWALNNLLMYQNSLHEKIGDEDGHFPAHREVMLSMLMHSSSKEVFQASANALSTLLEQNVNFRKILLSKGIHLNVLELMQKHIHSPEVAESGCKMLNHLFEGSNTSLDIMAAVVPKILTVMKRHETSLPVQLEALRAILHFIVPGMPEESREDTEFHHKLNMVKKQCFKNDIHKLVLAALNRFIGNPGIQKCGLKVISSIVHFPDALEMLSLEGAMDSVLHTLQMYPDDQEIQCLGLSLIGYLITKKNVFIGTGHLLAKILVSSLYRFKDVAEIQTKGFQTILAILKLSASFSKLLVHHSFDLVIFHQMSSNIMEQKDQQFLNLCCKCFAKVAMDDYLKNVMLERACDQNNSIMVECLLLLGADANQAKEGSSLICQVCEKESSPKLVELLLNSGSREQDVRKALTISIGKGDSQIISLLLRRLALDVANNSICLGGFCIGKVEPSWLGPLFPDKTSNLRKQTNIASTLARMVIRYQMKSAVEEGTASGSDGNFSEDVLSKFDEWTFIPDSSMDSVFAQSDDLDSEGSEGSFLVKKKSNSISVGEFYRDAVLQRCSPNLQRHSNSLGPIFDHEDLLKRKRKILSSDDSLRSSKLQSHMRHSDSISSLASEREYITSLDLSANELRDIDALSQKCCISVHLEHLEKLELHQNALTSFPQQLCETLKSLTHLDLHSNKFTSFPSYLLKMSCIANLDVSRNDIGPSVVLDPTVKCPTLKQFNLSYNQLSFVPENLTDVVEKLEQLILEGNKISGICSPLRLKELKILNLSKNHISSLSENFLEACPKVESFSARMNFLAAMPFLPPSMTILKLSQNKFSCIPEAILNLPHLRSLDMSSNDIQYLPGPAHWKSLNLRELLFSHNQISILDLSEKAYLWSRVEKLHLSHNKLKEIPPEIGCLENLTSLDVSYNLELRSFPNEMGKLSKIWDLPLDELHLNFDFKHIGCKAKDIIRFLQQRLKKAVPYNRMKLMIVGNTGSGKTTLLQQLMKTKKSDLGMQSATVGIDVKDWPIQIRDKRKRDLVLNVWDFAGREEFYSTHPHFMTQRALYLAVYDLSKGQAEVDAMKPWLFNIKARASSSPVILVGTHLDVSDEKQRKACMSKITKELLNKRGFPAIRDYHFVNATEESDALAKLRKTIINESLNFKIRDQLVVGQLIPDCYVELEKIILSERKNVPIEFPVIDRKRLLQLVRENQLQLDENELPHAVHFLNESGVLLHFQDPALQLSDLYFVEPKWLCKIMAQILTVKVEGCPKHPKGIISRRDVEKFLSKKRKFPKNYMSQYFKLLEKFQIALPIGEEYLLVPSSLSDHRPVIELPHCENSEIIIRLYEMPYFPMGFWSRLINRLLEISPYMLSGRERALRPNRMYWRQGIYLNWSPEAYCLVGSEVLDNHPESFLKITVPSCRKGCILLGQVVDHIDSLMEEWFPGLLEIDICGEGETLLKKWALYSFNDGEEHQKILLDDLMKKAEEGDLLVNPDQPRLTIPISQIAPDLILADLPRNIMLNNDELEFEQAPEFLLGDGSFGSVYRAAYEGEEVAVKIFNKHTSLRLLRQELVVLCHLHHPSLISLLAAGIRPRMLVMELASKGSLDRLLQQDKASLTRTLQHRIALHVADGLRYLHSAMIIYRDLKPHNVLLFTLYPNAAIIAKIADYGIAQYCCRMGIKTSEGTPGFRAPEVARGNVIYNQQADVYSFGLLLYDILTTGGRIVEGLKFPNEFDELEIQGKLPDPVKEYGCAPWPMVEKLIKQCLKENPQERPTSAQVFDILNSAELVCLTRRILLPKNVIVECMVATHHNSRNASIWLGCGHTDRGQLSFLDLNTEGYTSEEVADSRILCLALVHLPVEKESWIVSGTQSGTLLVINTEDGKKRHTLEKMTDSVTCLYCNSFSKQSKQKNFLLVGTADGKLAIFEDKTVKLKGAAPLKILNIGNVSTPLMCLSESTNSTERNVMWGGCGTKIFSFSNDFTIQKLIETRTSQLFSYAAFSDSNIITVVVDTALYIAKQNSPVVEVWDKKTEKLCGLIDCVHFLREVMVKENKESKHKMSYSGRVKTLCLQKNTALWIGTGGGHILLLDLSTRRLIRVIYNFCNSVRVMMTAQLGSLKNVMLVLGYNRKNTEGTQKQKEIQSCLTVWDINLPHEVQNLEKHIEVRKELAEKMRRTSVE
In short: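 SH-SY5Y cells transduced with BacMam full-length human LRRK2 (MOI 50) for 24 h, then treated with compound (top final 10 μM) for 60 min at 37° C. Lysate pSer935 LRRK2 quantified by AlphaScreen using anti-pS935 and total-LRRK2 antibodies. Values from sigmoidal dose-response fit.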

SMILES	IC50 [1]	IC50 [2]
COc1nc(N2CC3CC2CO3)cc(-n2ncc3cc(C)c(C4CCN(C5COC5)CC4O)cc32)n1 (single isomer, unassigned) [Example E133]	≤ 0.1 µM	
Cc1nc(N2C[C@H]3C[C@@H]2CO3)cc(-n2ncc3cc(C)c(C4CCN(C5CCOC5)CC4F)cc32)n1 (single isomer, unassigned) [Example E148]	≤ 0.1 µM	
Cc1nc(N2C[C@@H]3C[C@H]2CO3)cc(-n2ncc3cc(C)c(C4CCN(C5CCOC5)CC4F)cc32)n1 (single isomer, unassigned) [Example E150]	≤ 0.1 µM	
Cc1nc(N2CC3(CO)CC2CO3)cc(-n2ncc3cc(C)c(C4CCN(C5CCOC5)CC4)cc32)n1 (single isomer, unassigned) [Example E152, (5-(2-methyl-6-(5-methyl-6-(1-(tetrahydrofuran-3-yl)piperidin-4-yl)-1H-indazol-1-yl)pyrimidin-4-yl)-2-oxa-5-azabicyclo[2.2.1]heptan-1-yl)methanol]	≤ 0.1 µM	
Cc1nc(N2C[C@H]3C[C@@H]2CO3)cc(-n2ncc3cc(C)c(C4CCN(CCC(=O)O)CC4F)cc32)n1 (single isomer, unassigned) [Example E154]	≤ 0.1 µM	
Cc1nc(N2C[C@@H]3C[C@H]2CO3)cc(-n2ncc3cc(C)c(C4CCN(CCC(=O)O)CC4F)cc32)n1 (single isomer, unassigned) [Example E156]	≤ 0.1 µM	
COc1nc(N2C[C@H]3C[C@@H]2CO3)cc(-n2ncc3cc(C)c(C4CCN(CCC(=O)O)CC4F)cc32)n1 (single isomer, unassigned) [Example E158]	≤ 0.1 µM	≤ 0.01 µM
Cc1nc(N2C[C@@]3(CO)C[C@@H]2CO3)cc(-n2ncc3cc(C)c(C4CCN([C@H]5CCOC5)CC4)cc32)n1 [Example E142, ((1R,4R)-5-(2-methyl-6-(5-methyl-6-(1-((S)-tetrahydrofuran-3-yl)piperidin-4-yl)-1H-indazol-1-yl)pyrimidin-4-yl)-2-oxa-5-azabicyclo[2.2.1]heptan-1-yl)methanol]	≤ 0.1 µM	
Cc1nc(N2C[C@]3(CO)C[C@H]2CO3)cc(-n2ncc3cc(C)c(C4CCN([C@H]5CCOC5)CC4)cc32)n1 [Example E143, ((1S,4S)-5-(2-methyl-6-(5-methyl-6-(1-((S)-tetrahydrofuran-3-yl)piperidin-4-yl)-1H-indazol-1-yl)pyrimidin-4-yl)-2-oxa-5-azabicyclo[2.2.1]heptan-1-yl)methanol]	≤ 0.1 µM	≤ 1 µM

Other lines, results leading:

IC50 [1]	IC50 [2]	SMILES
≤ 0.1 µM	≤ 0.01 µM	COc1nc(N2C[C@@H]3C[C@H]2CO3)cc(-n2ncc3cc(C)c(C4CCN(CCC(=O)O)CC4F)cc32)n1 (single isomer, unassigned) [Example E160]
≤ 0.1 µM		Cc1nc(N2C[C@H]3C[C@@H]2CO3)cc(-n2ncc3cc(C)c(C4CCN(C5COCC5O)CC4)cc32)n1 (single isomer, unassigned) [Example E171]
≤ 0.1 µM	≤ 1 µM	Cc1nc(N2CC3OCC2C3O)cc(-n2ncc3cc(C)c(C4CCN([C@H]5CCOC5)CC4)cc32)n1 (single isomer, unassigned) [Example E176, TFA Salt]
≤ 0.1 µM	≤ 1 µM	Cc1nc(N2C[C@H]3C[C@@H]2CO3)cc(-n2ncc3cc(C)c(C4CCN(CCC(=O)O)CC4)cc32)n1 [Example E162, 3-(4-(1-(6-((1R,4R)-2-oxa-5-azabicyclo[2.2.1]heptan-5-yl)-2-methylpyrimidin-4-yl)-5-methyl-1H-indazol-6-yl)piperidin-1-yl)propanoic Acid]
≤ 0.1 µM		COC(=O)CCN1CCC(c2cc3c(cnn3-c3cc(N4C[C@@H]5C[C@H]4CO5)nc(C)n3)cc2C)CC1 [Example E163, Methyl 3-(4-(1-(6-((1S,4S)-2-oxa-5-azabicyclo[2.2.1]heptan-5-yl)-2-methylpyrimidin-4-yl)-5-methyl-1H-indazol-6-yl)piperidin-1-yl)propanoate]
≤ 0.1 µM	≤ 1 µM	COc1nc(N2C[C@H]3C[C@@H]2CO3)cc(-n2ncc3cc(C)c(C4CCN(CCC(=O)O)CC4)cc32)n1 [Example E164, 3-(4-(1-(6-((1R,4R)-2-oxa-5-azabicyclo[2.2.1]heptan-5-yl)-2-methoxypyrimidin-4-yl)-5-methyl-1H-indazol-6-yl)piperidin-1-yl)propanoic Acid]
≤ 0.1 µM		Cc1nc(N2CC3(CO)CC2CO3)cc(-n2ncc3cc(C)c(C4CCN(C5COC5)CC4)cc32)n1 (stereo not shown) [Example E166, (5-(2-methyl-6-(5-methyl-6-(1-(oxetan-3-yl)piperidin-4-yl)-1H-indazol-1-yl)pyrimid-in-4-yl)-2-oxa-5-azabicyclo[2.2.1]heptan-1-yl)methanol]
≤ 0.01 µM	≤ 0.01 µM	COc1nc(N2CC3(CO)CC2CO3)cc(-n2ncc3cc(C)c(C4CCN(C5COC5)CC4)cc32)n1 (stereo not shown) [Example E167, (5-(2-methoxy-6-(5-methyl-6-(1-(oxetan-3-yl)piperidin-4-yl)-1H-indazol-1-yl)pyrim-idin-4-yl)-2-oxa-5-azabicyclo[2.2.1]heptan-1-yl)methanol]
≤ 0.1 µM		Cc1nc(N2C[C@H]3C[C@@H]2CO3)cc(-n2ncc3cc(C)c(C4CCN(CCS(C)(=O)=O)CC4)cc32)n1 [Example E170, (1R,4R)-5-(2-methyl-6-(5-methyl-6-(1-(2-(methylsulfonyl)ethyl)piperidin-4-yl)-1H-indazol-1-yl)pyrimidin-4-yl)-2-oxa-5-azabicyclo[2.2.1]heptane]
≤ 0.1 µM		Cc1nc(N2C[C@@]3(CO)C[C@@H]2CO3)cc(-n2ncc3cc(C)c(C4CCOCC4)cc32)n1 [Example E173, ((1R,4R)-5-(2-methyl-6-(5-methyl-6-(tetrahydro-2H-pyran-4-yl)-1H-indazol-1-yl)pyrimidin-4-yl)-2-oxa-5-azabicyclo[2.2.1]heptan-1-yl)methanol]
≤ 0.1 µM	≤ 0.01 µM	COc1nc(N2C[C@H]3C[C@@H]2CO3)cc(-n2ncc3cc(C)c(C4CCN(CCS(C)(=O)=O)CC4)cc32)n1 [Example E174, (1R,4R)-5-(2-methoxy-6-(5-methyl-6-(1-(2-(methylsulfonyl)ethyl)piperidin-4-yl)-1H-indazol-1-yl)pyrimidin-4-yl)-2-oxa-5-azabicyclo[2.2.1]heptane]
